Article PMC6868653 (Pharmacology Research & Perspectives, 2019)
Substitutions are numbered along the chain they refer to. Where “and” joins values, the source holds several entries; their conditions need not be identical. Identical values can stand only once. Like-named read-outs stand apart in the source and are kept apart here.

Experiments:
hGPR132a [1] = molecular target: T1, hGPR132a (Homo sapiens, UniProt Q9UNW8); format: cell-based; conditions: for pEC50, Human GPR132a, Yeast: mean ± SD, IA = inactive, bound = top concentration tested; for Emax, Human GPR132a, Yeast: normalized to the effect of NPGly
T1 sequence (Q9UNW8 1-380): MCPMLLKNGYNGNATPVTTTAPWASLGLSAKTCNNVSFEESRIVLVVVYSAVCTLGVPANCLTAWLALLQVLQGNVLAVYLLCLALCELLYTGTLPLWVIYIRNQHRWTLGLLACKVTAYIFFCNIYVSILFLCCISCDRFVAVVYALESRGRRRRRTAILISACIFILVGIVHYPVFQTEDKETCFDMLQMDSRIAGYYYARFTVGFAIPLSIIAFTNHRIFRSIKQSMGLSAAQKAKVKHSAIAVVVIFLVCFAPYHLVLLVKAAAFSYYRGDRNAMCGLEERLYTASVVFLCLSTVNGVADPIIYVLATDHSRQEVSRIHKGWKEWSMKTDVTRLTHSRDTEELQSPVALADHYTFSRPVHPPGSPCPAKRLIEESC

hGPR132a [2] = molecular target: T1, hGPR132a; test: β‐arrestin association; format: cell-based; conditions: for pEC50, Human GPR132a, β‐arrestin: mean ± SD; for Emax, Human GPR132a, β‐arrestin: normalized to the effect of SB‐583831
Rat GPR132 = Rat GPR132 (Rattus norvegicus, UniProt A0A8I6A964); test: Yeast pheromone-response pathway reporter assay, yeast expressing rGPR132; format: cell-based; conditions: for pEC50, Rat GPR132, Yeast: mean ± SD; for Emax, Rat GPR132, Yeast: normalized to the effect of 9‐HODE
hGPR132a R203A = molecular target: T2, hGPR132a R203A (Homo sapiens, UniProt Q9UNW8, R203A); test: Yeast assay, hGPR132a mutant R203A; conditions: mean ± SD
T2 sequence (Q9UNW8 1-380 R203A): T1 sequence (Q9UNW8 1-380) with R203A

Mouse GPR132 = molecular target: T3, Mouse GPR132 (Mus musculus, UniProt Q9Z282); test: β‐arrestin association; format: cell-based; conditions: for pEC50, Mouse GPR132, β‐arrestin: mean ± SD; for Emax, Mouse GPR132, β‐arrestin: normalized to the effect of SB‐583831
T3 sequence (Q9Z282 1-382): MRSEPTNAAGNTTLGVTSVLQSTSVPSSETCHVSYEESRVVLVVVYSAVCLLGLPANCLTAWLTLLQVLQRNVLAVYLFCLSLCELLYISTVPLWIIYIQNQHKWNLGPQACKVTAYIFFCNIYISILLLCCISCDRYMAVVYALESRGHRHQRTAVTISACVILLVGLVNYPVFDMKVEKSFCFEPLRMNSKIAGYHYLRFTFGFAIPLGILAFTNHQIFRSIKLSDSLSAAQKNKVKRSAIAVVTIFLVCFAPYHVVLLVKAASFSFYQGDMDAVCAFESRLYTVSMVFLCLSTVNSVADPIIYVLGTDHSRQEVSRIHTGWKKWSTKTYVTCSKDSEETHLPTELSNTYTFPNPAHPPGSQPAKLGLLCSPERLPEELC

parental RBL cells = test: Ca2+ microfluorimetry in parental RBL cells; format: cell-based, rat; conditions: 10 µmol/L ligand, mean ± SE
hGPR132a [3] = molecular target: T1, hGPR132a; test: Ca2+ microfluorimetry in RBL‐hGPR132a cells; format: cell-based; conditions: 10 µmol/L ligand, mean ± SE
hGPR132a [4] = molecular target: T1, hGPR132a; test: Yeast assay hGPR132a, antagonist mode / Schild analysis; format: cell-based; conditions: agonist SB‐583831
hGPR132a Y200A = molecular target: T4, hGPR132a Y200A (Homo sapiens, UniProt Q9UNW8, Y200A); test: Yeast assay, hGPR132a mutant Y200A; conditions: mean ± SD
T4 sequence (Q9UNW8 1-380 Y200A): T1 sequence (Q9UNW8 1-380) with Y200A

human CB2 = human CB2 (Homo sapiens, UniProt P34972); test: Yeast assay, specificity receptor human CB2; format: cell-based
CB2 = conditions: tested up to 10 µmol/L; cited from earlier work

Rat GPR132, sequence (A0A8I6A964 1-384): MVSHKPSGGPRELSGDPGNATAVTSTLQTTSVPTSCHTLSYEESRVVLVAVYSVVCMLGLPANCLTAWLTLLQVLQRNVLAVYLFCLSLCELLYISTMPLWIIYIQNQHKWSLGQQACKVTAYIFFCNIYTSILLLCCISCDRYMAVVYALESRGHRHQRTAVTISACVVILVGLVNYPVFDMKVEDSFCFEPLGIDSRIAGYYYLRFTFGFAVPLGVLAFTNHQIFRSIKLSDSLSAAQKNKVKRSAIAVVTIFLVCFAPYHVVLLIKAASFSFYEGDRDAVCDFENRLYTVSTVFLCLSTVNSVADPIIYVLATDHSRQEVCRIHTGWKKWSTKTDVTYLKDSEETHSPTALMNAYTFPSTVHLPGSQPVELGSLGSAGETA
human CB2, sequence (P34972 whole entry): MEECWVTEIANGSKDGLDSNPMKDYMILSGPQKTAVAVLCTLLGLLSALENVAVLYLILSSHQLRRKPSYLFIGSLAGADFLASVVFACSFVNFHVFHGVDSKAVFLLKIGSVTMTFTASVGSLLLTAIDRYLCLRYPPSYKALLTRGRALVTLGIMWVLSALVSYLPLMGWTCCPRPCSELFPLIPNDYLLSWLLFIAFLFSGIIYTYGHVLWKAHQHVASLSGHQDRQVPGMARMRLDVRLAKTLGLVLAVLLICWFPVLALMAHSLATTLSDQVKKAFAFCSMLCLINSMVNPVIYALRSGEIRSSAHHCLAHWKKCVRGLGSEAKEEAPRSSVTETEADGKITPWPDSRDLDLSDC

Row | SMILES | pEC50, Human GPR132a, Yeast (hGPR132a [1]) | pEC50, Human GPR132a, β‐arrestin (hGPR132a [2]) | Emax, Human GPR132a, β‐arrestin (hGPR132a [2]) | pEC50, Rat GPR132, Yeast (Rat GPR132) | Emax, Rat GPR132, Yeast (Rat GPR132) | pEC50, Mouse GPR132, β‐arrestin (Mouse GPR132) | Emax, Mouse GPR132, β‐arrestin (Mouse GPR132) | Emax, Human GPR132a, Yeast (hGPR132a [1]) | also measured
1 | CCCCCCCCCCCCCCCC(=O)NCC(=O)O [NPGly, N‐palmitoylglycine] | 6.2 ± 0.16 (7) | <5 (3) | 14% | 7.0 ± 0.12 (4) | 53 ± 14% | <5 (2) | 11% |  | pEC50, R203A (hGPR132a R203A): abolished responses
2 | CC/C=C\C/C=C\C/C=C\C/C=C\C/C=C\C/C=C\CCC(=O)NCC(=O)O [NDGly, N‐docosahexanoylglycine] | <4.4 (4) | <5 (2) |  |  |  |  |  | 33% | 
3 | CCCCCCCC/C=C\CCCCCCCC(=O)NCC(=O)O [NOGly, N‐oleoylglycine] | 5.1 ± 0.24 (3) | 5.6 ± 0.18 (2) | 29 ± 15% |  |  | 5.3 ± 0.05 (2) | 44 ± 10% | 95 ± 6% | pEC50, R203A (hGPR132a R203A): eliminated the activity
4 | CCCCC/C=C\C/C=C\CCCCCCCC(=O)NCC(=O)O [NLGly, N‐linoleoylglycine] | 5.8 ± 0.08 (3) | 5.5 ± 0.23 (2) | 39±4% and 38 ± 4% | 6.5 ± 0.36 (4) | 68 ± 7% | 5.3 (1) | 40% | 84 ± 6% | Ca2+ transient, peak response (parental RBL cells): 0.040 ± 0.008 ratio units; pEC50, R203A (hGPR132a R203A): abolished responses; Ca2+ transient, peak response (hGPR132a [3]): 0.138 ± 0.03 ratio units
5 | CCCCC/C=C\C/C=C\CCCCCCCC(N)=O [Linoleamide, linoleamide] | 5.8 ± 0.01 (3) | 5.5 (1) | 22% | 5.9 ± 0.21 (2) | 37 ± 5% | <5 (1) |  | 79 ± 11% | 
6 | CCCCCCCCCCCCCCCCCC(=O)NCC(=O)O [NSGly, N‐stereoylglycine] | 5.1 ± 0.08 (3) | 5.4 (1) | 23% |  |  | <5 (1) |  | 80 ± 4% | 
7 | CCCc1nc2c(C)cc(-c3nc4ccccc4n3C)cc2n1Cc1ccc(-c2ccccc2C(=O)O)cc1 [telmisartan] |  |  |  |  |  |  |  |  | Schild Hill slope nH (hGPR132a [4]): 1.9
8 | CCCCCCC(C)(C)c1ccc([C@@H]2C[C@H](O)CC[C@H]2CCCO)c(O)c1 [CP‐55,940] |  |  |  |  |  |  |  | full agonists | EC50 (hGPR132a [1]): 3.16 µM; Emax (hGPR132a [1]; read-out: Emax, Human GPR132a, Yeast): 102 ± 3%; EC50 (Rat GPR132): > 3.16 µM; pEC50, Y200A (hGPR132a Y200A): abolished
9 | CCCCC/C=C\C/C=C\CCCCCCCC(=O)O [Linoleic acid] |  |  |  |  |  |  |  |  | EC50 (hGPR132a [1]): > 100 µM; agonist activity at hGPR132a in yeast (hGPR132a [1]; tested up to 100 µmol/L): no detectable agonist activity; EC50 (hGPR132a [2]): > 10 µM
10 | CCCCC/C=C\C/C=C\C/C=C\C/C=C\CCCC(=O)NCC(=O)O [NAGly, N‐arachidonoylglycine] | <4.5 (3) |  |  | 5.3 ± 0.09 (4) | 87 ± 12% |  |  | 38% | Emax, CB2, yeast (human CB2): 17±2%; pEC50, CB2, yeast (human CB2): 5.6 ± 0.3; binding to CB2 (CB2): does not bind
11 | CCCCC/C=C\C/C=C\C/C=C\C/C=C\CCCC(=O)N[C@@H](Cc1ccc(O)cc1)C(=O)O [NATyr, N‐arachidonyltyrosine] |  |  |  | <4 (3) |  |  |  |  | 
12 | CCCCC/C=C\C=C\C(O)CCCCCCCC(=O)O (stereo not shown) [9‐HODE, 9‐hydroxyoctadecadienoic acid] | 5.9 ± 0.14 (4) |  |  | 6.2 ± 0.12 (5) | 100% | 5.6 ± 0.23 (5) | 97 ± 6% |  | Ca2+ transient, peak response (parental RBL cells): 0.023 ± 0.003 ratio units; Ca2+ transient, peak response (hGPR132a [3]): 0.122 ± 0.016 ratio units
13 | CCCCCCCC/C=C\CCCCCCCC(=O)N[C@@H](CO)C(=O)O [NOSer, N‐oleoylserine] | 5.8 ± 0.07 (4) |  |  |  |  |  |  | 21 ± 5% | 
